From patent US20250281499A1, “FUSED AMINO PYRIMIDINE COMPOUNDS FOR TREATMENT OF NEUROPATHIC AND NEURO-INFLAMMATORY PAIN” (Ovid Therapeutics Inc., priority 2024, published 2025)

How the values were obtained:
[1] = biological target: T1, KCC3 (Homo sapiens, UniProt Q9UHW9); assay: Tl+ flux assay, HEK-293 cells expressing KCC3; format: cell-based; details: read-out: concentration at which effects on KCC3 were seen (EC50, FIG. 1G)
T1 construct: expressed in transfected cells; host or cells: HEK-293
T1 sequence (Q9UHW9 1-1150): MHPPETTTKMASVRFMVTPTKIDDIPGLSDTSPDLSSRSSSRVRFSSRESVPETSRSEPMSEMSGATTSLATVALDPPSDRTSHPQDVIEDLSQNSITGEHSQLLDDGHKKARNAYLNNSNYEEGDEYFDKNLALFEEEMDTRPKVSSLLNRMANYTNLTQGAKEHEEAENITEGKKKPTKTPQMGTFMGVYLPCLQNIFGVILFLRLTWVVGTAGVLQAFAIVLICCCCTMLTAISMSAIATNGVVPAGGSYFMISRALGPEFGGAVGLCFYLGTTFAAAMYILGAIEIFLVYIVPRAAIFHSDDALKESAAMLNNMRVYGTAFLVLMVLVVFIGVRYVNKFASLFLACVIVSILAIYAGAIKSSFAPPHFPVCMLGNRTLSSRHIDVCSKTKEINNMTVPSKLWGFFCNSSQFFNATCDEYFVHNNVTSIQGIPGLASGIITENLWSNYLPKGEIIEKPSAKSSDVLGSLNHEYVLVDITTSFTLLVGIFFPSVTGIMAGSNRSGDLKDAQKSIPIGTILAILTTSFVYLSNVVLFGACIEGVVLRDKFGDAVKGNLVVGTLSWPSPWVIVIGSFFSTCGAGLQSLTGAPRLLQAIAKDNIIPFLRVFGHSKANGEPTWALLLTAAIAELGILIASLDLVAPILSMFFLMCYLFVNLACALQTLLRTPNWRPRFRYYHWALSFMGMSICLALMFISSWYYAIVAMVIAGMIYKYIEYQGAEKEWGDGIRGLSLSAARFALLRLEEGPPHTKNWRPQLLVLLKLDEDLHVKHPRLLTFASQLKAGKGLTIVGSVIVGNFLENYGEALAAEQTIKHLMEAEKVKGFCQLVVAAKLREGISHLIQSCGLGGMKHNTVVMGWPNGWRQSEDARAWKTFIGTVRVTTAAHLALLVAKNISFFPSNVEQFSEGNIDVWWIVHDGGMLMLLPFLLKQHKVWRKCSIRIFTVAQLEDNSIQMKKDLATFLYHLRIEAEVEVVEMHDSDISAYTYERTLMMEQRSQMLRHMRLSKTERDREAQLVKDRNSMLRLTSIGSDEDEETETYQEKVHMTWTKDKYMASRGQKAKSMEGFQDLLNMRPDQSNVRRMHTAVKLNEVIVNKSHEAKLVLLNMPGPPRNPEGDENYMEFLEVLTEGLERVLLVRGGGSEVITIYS
Method: (§1) FLIPR TI Flux assay. HEK-293 cells were washed with HBSS, and then incubated with loading buffer containing TI sensitive fluorescent dye (https://www.moleculardevices.com), 20 μM bumetanide 20 μM ouabain and 2.5 mM probenecid for 1 h at room temperature (RT) under control conditions or with drugs in the dark using a FlexStation 3 microplate reader (Molecular Devices) and imaged […] for 30 min. Stimulus buffer was added containing 5 mM K^+/0.5 mM Tl^+ and cells were imaged every 1.5 over a 190 second time course The initial rate Tl^+ uptake (Relative Fluorescence Units (RFU) per second) was determined following addition of the stimulus buffer as outlined previously (Conway et al., 2017, supra) (Lee et al., 2022, supra).
(§2) Several studies have shown that the activity and plasma membrane accumulation of KCC2 is potentiated via phosphorylation of S940, a process mediated by the activity of protein kinase C and protein phosphatase 1 (Lee et al, 2011, supra; Lee et al., J Biol Chem 282, 29777-29784 (2007); Moore et al., Proc. Natl. Acad. Sci. U.S.A 115, 10166-10171 (2018); Moore et al., Trends Neurosci. 40, 555-571 (2017); Silayeva et al., Proc. Natl. Acad. Sci. U.S.A. 112, 3523-3528 (2015)). […] Compared to KCC2, effects on KCC3, KCC4, and NKCC1 were only seen at concentrations more than 35-fold that of KCC2 (>100 μM) (FIG. 1G).

[2] = biological target: T2, KCC4 (Homo sapiens, UniProt Q9Y666); assay: Tl+ flux assay, HEK-293 cells expressing KCC4; format: cell-based; details: read-out: concentration at which effects on KCC4 were seen (EC50, FIG. 1G)
T2 construct: expressed in transfected cells; host or cells: HEK-293
T2 sequence (Q9Y666 1-1083): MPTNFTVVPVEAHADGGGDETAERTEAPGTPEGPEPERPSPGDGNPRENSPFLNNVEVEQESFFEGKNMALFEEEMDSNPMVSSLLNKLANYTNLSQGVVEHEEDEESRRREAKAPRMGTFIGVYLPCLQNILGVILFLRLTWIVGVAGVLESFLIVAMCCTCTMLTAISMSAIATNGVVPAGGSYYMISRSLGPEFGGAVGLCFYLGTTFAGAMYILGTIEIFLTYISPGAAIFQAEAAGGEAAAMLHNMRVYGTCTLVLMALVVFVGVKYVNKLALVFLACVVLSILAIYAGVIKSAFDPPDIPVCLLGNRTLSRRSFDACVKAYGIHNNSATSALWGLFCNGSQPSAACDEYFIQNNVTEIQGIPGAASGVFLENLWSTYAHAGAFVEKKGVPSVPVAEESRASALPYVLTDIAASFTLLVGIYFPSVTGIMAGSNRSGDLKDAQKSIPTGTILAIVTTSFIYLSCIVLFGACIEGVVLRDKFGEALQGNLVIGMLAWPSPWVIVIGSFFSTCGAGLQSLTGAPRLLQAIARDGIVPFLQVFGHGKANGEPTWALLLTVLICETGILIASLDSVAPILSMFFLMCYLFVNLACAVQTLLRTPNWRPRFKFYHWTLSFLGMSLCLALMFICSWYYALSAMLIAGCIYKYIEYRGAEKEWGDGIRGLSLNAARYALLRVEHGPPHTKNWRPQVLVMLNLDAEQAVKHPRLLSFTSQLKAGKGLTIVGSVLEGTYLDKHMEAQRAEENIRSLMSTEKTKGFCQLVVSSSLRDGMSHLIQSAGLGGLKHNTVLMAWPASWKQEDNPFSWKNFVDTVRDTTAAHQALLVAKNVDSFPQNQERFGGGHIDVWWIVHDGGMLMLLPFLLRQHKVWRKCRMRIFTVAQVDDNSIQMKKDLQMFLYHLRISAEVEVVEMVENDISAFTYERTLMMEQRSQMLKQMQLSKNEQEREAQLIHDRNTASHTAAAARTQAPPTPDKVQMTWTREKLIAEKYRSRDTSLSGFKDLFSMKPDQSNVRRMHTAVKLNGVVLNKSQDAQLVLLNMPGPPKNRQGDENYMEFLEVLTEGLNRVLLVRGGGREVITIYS
Method: as §1, §2

[3] = system: acute brain slices; assay: Late recurrent discharges in acute brain slices exposed to 0-Mg

SMILES: C[C@@H]1CN(c2nc3c(c(Nc4ccc(C5CCCCC5)cc4)n2)COC3)CCO1 [Compound A, (R)—N-(4-cyclohexylphenyl)-2-(2-methylmorpholino)-5,7-dihydrofuro[3,4-d]pyrimidin-4-amine]
- EC50 [1]: > 100 µM
- EC50 [2]: > 100 µM
- development of late recurrent discharges (LRDs) [3]: reduced
